Tests used:
Test in all cases: relative viability (nuclei count vs DMSO), 5 days (fraction); higher = more cells survive
[1] = compound: C/C(=N\NC(=S)N1CCC1)/C2=CC=CC=N2 + CC(=O)c1c(C)c2cnc(Nc3ccc(N4CCNCC4)cn3)nc2n(C2CCCC2)c1=O [Palbociclib] (partner 0.5 µM)
Method in brief: (§1)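 Each reported value is a median over duplicate plates. It expresses relative viability: treated-well nuclei count divided by vehicle-well nuclei count. Lung cancer cell lines in 1536-well plates were dosed by pin tool a day after seeding, alone with one drug or with a fixed anchor-drug dose plus five library-drug doses (not always all listed) in √10 steps, and nuclei were counted after 5 days.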

[2] = compound: C/C(=N\NC(=S)N1CCC1)/C2=CC=CC=N2 + CC(C)C[C@H](NC(=O)[C@H](Cc1ccccc1)NC(=O)c1cnccn1)B(O)O [Bortezomib] (partner 0.002 µM)
Method in brief: as §1

[3] = compound: C/C(=N\NC(=S)N1CCC1)/C2=CC=CC=N2 + Cc1nc(NC(=O)N2CCC[C@H]2C(N)=O)sc1-c1ccnc(C(C)(C)C(F)(F)F)c1 [Alpelisib] (partner 2 µM)
Method in brief: as §1

[4] = compound: C/C(=N\NC(=S)N1CCC1)/C2=CC=CC=N2 + Cc1nc(Nc2ncc(C(=O)Nc3c(C)cccc3Cl)s2)cc(N2CCN(CCO)CC2)n1 [Dasatinib] (partner 0.075 µM)
Method in brief: as §1

Cell Line | relative viability ([1]; first compound 0.05 µM) | relative viability ([1]; first compound 0.1581 µM) | relative viability ([1]; first compound 0.5 µM) | relative viability ([1]; first compound 1.581 µM) | relative viability ([1]; first compound 5 µM) | relative viability ([2]; first compound 0.05 µM) | relative viability ([2]; first compound 0.1581 µM) | relative viability ([2]; first compound 0.5 µM) | relative viability ([2]; first compound 1.581 µM) | relative viability ([2]; first compound 5 µM) | relative viability ([3]; first compound 0.05 µM) | relative viability ([3]; first compound 0.1581 µM) | relative viability ([3]; first compound 0.5 µM) | relative viability ([3]; first compound 1.581 µM) | relative viability ([3]; first compound 5 µM) | relative viability ([4]; first compound 0.05 µM) | relative viability ([4]; first compound 0.1581 µM) | relative viability ([4]; first compound 0.5 µM) | relative viability ([4]; first compound 1.581 µM) | relative viability ([4]; first compound 5 µM)
SW 1573 | 0.0872 | 0.139 | 0.131 | 0.0878 | 0.0783 | 0.143 | 0.115 | 0.151 | 0.117 | 0.087 | 0.107 | 0.155 | 0.169 | 0.1 | 0.0847 | 0.0654 | 0.0445 | 0.0863 | 0.0351 | 0.0432
PC-14 | 0.0312 | 0.0553 | 0.052 | 0.0451 | 0.0402 | 0.114 | 0.106 | 0.0629 | 0.0768 | 0.0781 | 0.108 | 0.0754 | 0.067 | 0.0556 | 0.0881 | 0.0371 | 0.0372 | 0.0336 | 0.023 | 0.0224
COR-L23 | 0.0993 | 0.12 | 0.0934 | 0.0924 | 0.0839 | 0.12 | 0.139 | 0.114 | 0.077 | 0.0874 | 0.113 | 0.123 | 0.097 | 0.0558 | 0.0865 | 0.102 | 0.095 | 0.0719 | 0.0707 | 0.0937
HCC-78 | 0.355 | 0.368 | 0.273 | 0.329 | 0.323 | 0.509 | 0.257 | 0.178 | 0.153 | 0.232 | 0.257 | 0.252 | 0.177 | 0.153 | 0.158 | 0.264 | 0.256 | 0.268 | 0.181 | 0.157
NCI-H2405 | 0.217 | 0.25 | 0.26 | 0.214 | 0.21 | 0.275 | 0.31 | 0.322 | 0.286 | 0.989 | 0.179 | 0.198 | 0.276 | 0.202 | 0.199 | 0.219 | 0.226 | 0.253 | 0.228 | 0.231
SK-LU-1 | 0.233 | 0.233 | 0.246 | 0.196 | 0.233 | 0.218 | 0.263 | 0.212 | 0.194 | 0.268 | 0.209 | 0.163 | 0.19 | 0.146 | 0.196 | 0.123 | 0.139 | 0.145 | 0.0978 | 0.114
EMC-BAC-2 | 0.274 | 0.324 | 0.261 | 0.223 | 0.253 | 0.104 | 0.142 | 0.149 | 0.174 | 0.16 | 0.288 | 0.426 | 0.122 | 0.163 | 0.152 | 0.149 | 0.169 | 0.175 | 0.129 | 0.186
LCLC-97TM1 | 0.0948 | 0.223 | 0.0874 | 0.0867 | 0.0722 | 0.0597 | 0.0472 | 0.0458 | 0.0548 | 0.0452 | 0.107 | 0.203 | 0.107 | 0.106 | 0.112 | 0.163 | 0.161 | 0.143 | 0.0911 | 0.13
H3255 | 0.259 | 0.278 | 0.304 | 0.259 | 0.266 | 0.227 | 0.276 | 0.268 | 0.171 | 0.195 | 0.242 | 0.323 | 0.221 | 0.181 | 0.214 | 0.355 | 0.347 | 0.258 | 0.225 | 0.392
LXF-289 | 0.252 | 0.6 | 0.189 | 0.143 | 0.13 | 0.314 | 0.216 | 0.255 | 0.203 | 0.121 | 0.539 | 0.307 | 0.278 | 0.147 | 0.141 | 0.0597 | 0.064 | 0.0627 | 0.0541 | 0.0561
UMC-11 | 0.155 | 0.139 | 0.238 | 0.213 | 0.169 | 0.175 | 0.173 | 0.141 | 0.141 | 0.101 | 0.235 | 0.182 | 0.153 | 0.117 | 0.126 | 0.231 | 0.186 | 0.153 | 0.138 | 0.146
LC-2-ad | 0.224 | 0.196 | 0.192 | 0.172 | 0.202 | 0.115 | 0.106 | 0.114 | 0.104 | 0.0851 | 0.126 | 0.109 | 0.107 | 0.104 | 0.0953 | 0.191 | 0.187 | 0.143 | 0.165 | 0.166
A-427 | 0.194 | 0.224 | 0.205 | 0.174 | 0.181 | 0.171 | 0.147 | 0.126 | 0.117 | 0.114 | 0.136 | 0.739 | 0.142 | 0.101 | 0.11 | 0.144 | 0.124 | 0.132 | 0.0986 | 0.117
NCI-H322M | 0.345 | 0.382 | 0.488 | 0.379 | 0.439 | 0.176 | 0.295 | 0.296 | 0.287 | 0.324 | 0.318 | 0.844 | 0.186 | 0.258 | 0.254 | 0.183 | 0.309 | 0.263 | 0.247 | 0.282
HCC-366 | 0.065 | 0.0358 | 0.0237 | 0.0228 | 0.026 | 0.0281 | 0.0189 | 0.0149 | 0.0223 | 0.02 | 0.0241 | 0.013 | 0.0152 | 0.0166 | 0.0137 | 0.0305 | 0.0271 | 0.0302 | 0.0382 | 0.031
NCI-H1975 | 0.105 | 0.106 | 0.105 | 0.11 | 0.131 | 0.15 | 0.144 | 0.134 | 0.147 | 0.156 | 0.137 | 0.137 | 0.123 | 0.136 | 0.154 | 0.104 | 0.0967 | 0.0846 | 0.0879 | 0.0899

Source: the supplement of paper PMC10307832
